For the experiment, the system named is PBMC (T cell proliferation). Description: T cell proliferation assay, PHA-stimulated human PBMC (BrdU ELISA). The format is cell-based. Conditions: 48 hours, BrdU. In outline:
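BrdU ELISA readout of proliferation at 48 hours. Cells: human PBMC from healthy donors in 10% dialyzed FCS/RPMI1640, 1×10^5 per well, activated by 2 μg/ml phytohaemagglutinin in the presence of compound.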
In general terms: Dividing cells build labelled thymidine or BrdU into new DNA.

Where [1] appears, read: human PBMC, 2 μg/ml PHA, read-out: D: IC50 (Tcell proliferation).
The mark [2] stands for this setting: PHA-stimulated human PBMC, column D, activity classes 1-4, read-out: IC50 (Tcell proliferation).

Structures are written as SMILES. pIC50: −log10 of the molar value. Where two headings read alike, the source gives them in different places.

Turning to `CCOC(=O)c1c(-c2ccncc2F)noc1-c1cnn(-c2cccnc2)c1C(F)(F)F` [Example B-17, ethyl 3-(3-fluoropyridin-4-yl)-5-(1-(pyridin-3-yl)-5-(trifluoromethyl)-1H-pyrazol-4-yl)isoxazole-4-carboxylate], under setting [1], the pIC50 was 5.00 to 6.00.

Regarding `O=C(c1c(-c2c(F)cccc2Cl)noc1-c1cnn(-c2ccccc2F)c1C(F)(F)F)N1CCN(Cc2cccc(Cl)c2)CC1` [Example 24, (3-(2-chloro-6-fluorophenyl)-5-(1-(2-fluorophenyl)-5-(trifluoromethyl)-1H-pyrazol-4-yl)isoxazol-4-yl)(4-(3-chlorobenzyl)piperazin-1-yl)methanone], the pIC50 under setting [1] was 6.00 to 7.00.

Turning to `CC(C)OC(=O)c1c(-c2c(F)cccc2Cl)noc1-c1cnn(-c2ccccc2F)c1C(F)(F)F` [Example 43, i-Propyl 3-(2-chloro-6-fluorophenyl)-5-[1-(2-fluorophenyl)-5-(trifluoromethyl)-1H-pyrazol-4-yl]isoxazole-4-carboxylate], under setting [1], the pIC50 is 7.00 to 8.00.

Consider `COC(=O)c1c(-c2c(F)cccc2Cl)noc1-c1cnn(-c2c(Cl)cccc2Cl)c1C(F)(F)F` [Example 70, methyl 3-(2-chloro-6-fluorophenyl)-5-(1-(2,6-dichlorophenyl)-5-(trifluoromethyl)-1H-pyrazol-4-yl)isoxazole-4-carboxylate], for which the pIC50 under setting [1] is 6.00 to 7.00.

With `CCOC(=O)c1c(-c2c(F)cccc2Cl)noc1-c1cnn(CCN2CCOCC2)c1C(F)(F)F` [Example B-97, ethyl 3-(2-chloro-6-fluorophenyl)-5-(1-(2-morpholinoethyl)-5-(trifluoromethyl)-1H-pyrazol-4-yl)isoxazole-4-carboxylate], under setting [1], the pIC50 was 5.00 to 6.00.

On to `COC(=O)c1c(-c2c(F)cccc2Cl)noc1-c1cnn(-c2nccc(C(F)(F)F)n2)c1C(F)(F)F` [Example 67, methyl 3-(2-chloro-6-fluorophenyl)-5-(5-(trifluoromethyl)-1-(4-(trifluoromethyl)pyrimidin-2-yl)-1H-pyrazol-4-yl)isoxazole-4-carboxylate], for which the pIC50 under setting [1] is 6.00 to 7.00.

On to `CON(C)C(=O)c1c(-c2ccccc2Cl)noc1-c1cnn(-c2cccc(Cl)c2)c1C(F)(F)F` [Example B-64, 3-(2-chlorophenyl)-5-(1-(3-chlorophenyl)-5-(trifluoromethyl)-1H-pyrazol-4-yl)-N-methoxy-N-methylisoxazole-4-carboxamide], for which the pIC50 under setting [1] is 6.00 to 7.00.

In the case of `CCOC(=O)c1c(-c2ccncc2F)noc1-c1cnn(-c2ccccc2F)c1C(F)(F)F` [Example B-15, ethyl 5-(1-(2-fluorophenyl)-5-(trifluoromethyl)-1H-pyrazol-4-yl)-3-(3-fluoropyridin-4-yl)isoxazole-4-carboxylate], the pIC50 under setting [1] was 6.00 to 7.00.

On to `CON(C)C(=O)c1c(-c2c(F)cccc2Cl)noc1-c1cnn(-c2ccccc2Cl)c1C(F)(F)F` [Example B-51, 3-(2-chloro-6-fluorophenyl)-5-(1-(2-chlorophenyl)-5-(trifluoromethyl)-1H-pyrazol-4-yl)-N-methoxy-N-methylisoxazole-4-carboxamide], for which, under setting [1], the pIC50 was 5.00 to 6.00.

For `NC(=O)c1c(-c2c(F)cccc2Cl)noc1-c1cnn(-c2cccc(F)c2)c1C(F)(F)F` [Example 124, 3-(2-chloro-6-fluorophenyl)-5-(1-(3-fluorophenyl)-5-(trifluoromethyl)-1H-pyrazol-4-yl)isoxazole-4-carboxamide], the pIC50 under setting [1] is 5.00 to 6.00.

For the compound `O=C(c1c(-c2ccccc2Cl)noc1-c1cnn(-c2cccc(Cl)c2)c1C(F)(F)F)N1CCCO1` [Example B-62, (3-(2-chlorophenyl)-5-(1-(3-chlorophenyl)-5-(trifluoromethyl)-1H-pyrazol-4-yl)isoxazol-4-yl)(isoxazolidin-2-yl)methanone], the pIC50 under setting [1] is 7.00 to 8.00.

Take `NS(=O)(=O)c1cccc(-n2ncc(-c3onc(-c4c(F)cccc4Cl)c3-c3nnco3)c2C(F)(F)F)c1` [IB-17, 3-(4-(3-(2-chloro-6-fluorophenyl)-4-(1,3,4-oxadiazol-2-yl)isoxazol-5-yl)-5-(trifluoromethyl)-1H-pyrazol-1-yl)benzenesulfonamide]: the pIC50 under setting [2] is 5.00 to 6.00.

Regarding `CSC(=O)c1c(-c2c(F)cccc2Cl)noc1-c1cnn(-c2cccnc2)c1C(F)(F)F` [Example B-68, S-methyl 3-(2-chloro-6-fluorophenyl)-5-(1-(pyridin-3-yl)-5-(trifluoromethyl)-1H-pyrazol-4-yl)isoxazole-4-carbothioate], the pIC50 under setting [1] is 7.00 to 8.00.

Take `CNC(=O)c1c(-c2c(F)cccc2Cl)noc1-c1cnn(-c2ccccc2)c1C(F)(F)F` [Example 59, 3-(2-chloro-6-fluorophenyl)-N-methyl-5-(1-phenyl-5-(trifluoromethyl)-1H-pyrazol-4-yl)isoxazole-4-carboxamide]: the pIC50 under setting [1] was 6.00 to 7.00.

In the case of `COC(=O)c1c(-c2ccc(Cl)cc2Cl)noc1-c1cnn(-c2cccc(Cl)c2)c1C(F)(F)F` [Example B-76, methyl 5-(1-(3-chlorophenyl)-5-(trifluoromethyl)-1H-pyrazol-4-yl)-3-(2,4-dichlorophenyl)isoxazole-4-carboxylate], the pIC50 under setting [1] is 6.00 to 7.00.

Turning to `CCOC(=O)c1c(-c2c(F)cccc2Cl)noc1-c1cnn(-c2ccccc2NC(C)=O)c1C(F)(F)F` [Example B-1], the pIC50 under setting [1] is 5.00 to 6.00.

With `CNC(=O)c1c(-c2c(F)cccc2Cl)noc1-c1cnn(-c2ccccn2)c1C(F)(F)F` [Example B-93, 3-(2-chloro-6-fluorophenyl)-N-methyl-5-(1-(pyridin-2-yl)-5-(trifluoromethyl)-1H-pyrazol-4-yl)isoxazole-4-carboxamide], the pIC50 under setting [1] is 5.00 to 6.00.

As to `CCOC(=O)c1c(-c2ccc(Cl)cc2Cl)noc1-c1cnn(-c2cccc(F)c2)c1C(F)(F)F` [Example 112, ethyl 3-(2,4-dichlorophenyl)-5-(1-(3-fluorophenyl)-5-(trifluoromethyl)-1H-pyrazol-4-yl)isoxazole-4-carboxylate], the pIC50 under setting [1] is 6.00 to 7.00.

For `CCOC(=O)c1c(-c2c(F)cccc2Cl)noc1-c1cnn(-c2cccc(S(N)(=O)=O)c2)c1C(F)(F)F` [Example B-43, ethyl 3-(2-chloro-6-fluorophenyl)-5-(1-(3-sulfamoylphenyl)-5-(trifluoromethyl)-1H-pyrazol-4-yl)-isoxazole-4-carboxylate], the pIC50 under setting [1] is 5.00 to 6.00.

For the compound `Fc1cccc(-n2ncc(-c3onc(-c4c(F)cccc4Cl)c3-c3nnco3)c2C(F)(F)F)c1` [Example I-7, 2-(3-(2-chloro-6-fluorophenyl)-5-(1-(3-fluorophenyl)-5-(trifluoromethyl)-1H-pyrazol-4-yl)isoxazol-4-yl)-1,3,4-oxadiazole], under setting [2], the pIC50 is 7.00 to 8.00.

In the case of `CON(C)C(=O)c1c(-c2c(F)cccc2Cl)noc1-c1cnn(-c2ccncc2)c1C(F)(F)F` [Example B-59, 3-(2-chloro-6-fluorophenyl)-N-methoxy-N-methyl-5-(1-(pyridin-4-yl)-5-(trifluoromethyl)-1H-pyrazol-4-yl)isoxazole-4-carboxamide], the pIC50 under setting [1] was 5.00 to 6.00.

Take `CCOC(=O)c1c(-c2onc(-c3c(F)cccc3Cl)c2C(=O)OC)cnn1-c1ccc(F)cc1F` [Example 35, methyl 3-(2-chloro-6-fluorophenyl)-5-(1-(2,4-difluorophenyl)-5-(ethoxycarbonyl)-1H-pyrazol-4-yl)isoxazole-4-carboxylate]: the pIC50 under setting [1] is 6.00 to 7.00.

In the case of `CN1CCN(C(=O)c2c(-c3c(F)cccc3Cl)noc2-c2cnn(-c3ccccc3F)c2C(F)(F)F)CC1` [Example 17, (3-(2-chloro-6-fluorophenyl)-5-(1-(2-fluorophenyl)-5-(trifluoromethyl)-1H-pyrazol-4-yl)isoxazol-4-yl)(4-methylpiperazin-1-yl)methanone], the pIC50 under setting [1] was 5.00 to 6.00.

In the case of `COc1cccc(Cl)c1-c1noc(-c2cnn(-c3ccccc3Cl)c2C(F)(F)F)c1-c1cnco1` [IB-34, 3-(2-chloro-6-methoxyphenyl)-5-(1-(2-chlorophenyl)-5-(trifluoromethyl)-1H-pyrazol-4-yl)-4-(oxazol-5-yl)isoxazole], the pIC50 under setting [2] is 6.00 to 7.00.

Consider `O=C(O)c1c(-c2ccccc2F)noc1-c1cnn(-c2cccc(F)c2)c1C(F)(F)F` [Example 91, 3-(2-fluorophenyl)-5-(1-(3-fluorophenyl)-5-(trifluoromethyl)-1H-pyrazol-4-yl)isoxazole-4-carboxylic acid], for which the pIC50 under setting [1] was 5.00 to 6.00.

On to `COC(=O)c1c(-c2ccccc2F)noc1-c1cnn(-c2cccc(Cl)c2)c1C(F)(F)F` [Example B-77, methyl 5-(1-(3-chlorophenyl)-5-(trifluoromethyl)-1H-pyrazol-4-yl)-3-(2-fluorophenyl)isoxazole-4-carboxylate], for which the pIC50 under setting [1] is 7.00 to 8.00.

With `COC(=O)c1c(-c2c(F)cccc2Cl)noc1-c1cnn(-c2cccc(Cl)c2)c1` [Example 115, methyl 3-(2-chloro-6-fluorophenyl)-5-(1-(3-chlorophenyl)-1H-pyrazol-4-yl)isoxazole-4-carboxylate], the pIC50 under setting [1] was 5.00 to 6.00.

Regarding `O=C(c1c(-c2c(F)cccc2Cl)noc1-c1cnn(-c2ccncc2)c1C(F)(F)F)N1CCCO1` [Example B-57, (3-(2-chloro-6-fluorophenyl)-5-(1-(pyridin-4-yl)-5-(trifluoromethyl)-1H-pyrazol-4-yl)isoxazol-4-yl)(isoxazolidin-2-yl)methanone], the pIC50 under setting [1] is 5.00 to 6.00.

Consider `Fc1cccc(-n2ncc(-c3onc(-c4c(F)cccc4Cl)c3-c3ccco3)c2C(F)(F)F)c1` [Example I-17, 3-(2-chloro-6-fluorophenyl)-5-(1-(3-fluorophenyl)-5-(trifluoromethyl)-1H-pyrazol-4-yl)-4-(furan-2-yl)isoxazole], for which, under setting [2], the pIC50 is above 8.00.

`CC(=O)Nc1c(-c2c(F)cccc2Cl)noc1-c1cnn(-c2cccc(F)c2)c1C(F)(F)F` [Example 139, N-(3-(2-chloro-6-fluorophenyl)-5-(1-(3-fluorophenyl)-5-(trifluoromethyl)-1H-pyrazol-4-yl)isoxazol-4-yl)acetamide]: under setting [1], the pIC50 is 5.00 to 6.00.

The values above are taken from patent US8592456B2 (4SC Discovery GmbH, priority 2011, dated 2013).
